Test results from patent EP2872621B1, “METHOD FOR THE GENERATION OF NON-TRANSFORMED MACROPHAGE CELL LINES” (Max-Planck-Gesellschaft zur Förderung der Wissenschaften …, priority 2012, dated 2014).

Key:
MPI cells = experiment: Cytokine response of MPI cells to microbial stimuli (ELISA, bioassay); format: cell-based, mouse
Experimental: Single cell suspensions (0.5x10^6 cells/ml) from fetal livers of 15 to 19 day-old mouse embryos or of livers of new-born mice (up to 2 weeks of age) were washed in PBS and resuspended in RPMI 1640 containing 10% fetal calf serum and supplemented with 20 ng/ml recombinant murine GM-CSF (also referred to herein as MPI medium). Rapidly proliferating cells were subcultured by splitting them 1:5 in MPI medium using cells detached with PBS/1.5 mM EDTA and floating cells in the culture. Cells proliferated more slowly after 2 weeks of culture. GM-CSF was replenished weekly and subcultures in MPI medium were made when total (attached and floating) cell density reached approximately 0.5 x 10^6 cell/ml. […]
(§1) Sarcin assay, measuring Ad endosomal escape was done as described previously (Schreiner et al., 2012). […] Non-endotoxin ligands were substantially LPS-free (less than or equal to 1 pg LPS/1011 viral particles) as determined by the Limulus amebocyte lysate test from Pyroquant. […]
Detection of secreted cytokines, surface antigens, intracellular proteins and enzymatic activity The following cytokines were detected with ELISA using commercially available antibody pairs or kits: mouse IL-6 (BD Bioscience), IL-1α (eBioscience), IL-1β (eBioscience) and IL-10 (eBioscience), human IL-6 (R&D Systems), IL-1α (eBioLegend) and IL-10 (BD Bioscience). […]

BMMs = experiment: Cytokine response of BMMs to microbial stimuli (ELISA, bioassay); format: cell-based, mouse
Text: BMMs (Bone Marrow derived Macrophages) and GM-CSF induced BMDCs were generated as described (Fejer et al., 2008). The purity of BMMs was higher than 98%, of BMDCs approximately 80%. SP37A3 cells were originally grown in RPMI in the presence of GM-CSF and M-CSF as described (Bros et al., 2007). Cells growing in media with […] GM-CSF but without M-CSF were selected from the original cells and used further in the studies shown here.
as §1
Detection of secreted cytokines, surface antigens, intracellular proteins and enzymatic activity The following cytokines were detected with ELISA using commercially available antibody pairs or kits: mouse IL-6 (BD Bioscience), IL-1α (eBioscience), IL-1β (eBioscience) and IL-10 (eBioscience), human IL-6 (R&D Systems), IL-1α (eBioLegend) and IL-10 (BD Bioscience). IFN-αβ and TNF-α activities were measured with bioassays as described (Fejer et al., 2005). […] Intracellular proteins were detected on immunoblots with antibodies from Pharmingen BD (IL-1α and IL-1β) and Cell Signalling (phosphorylated isophorm of p38 MAPK). […]

For FSL-1, the IFN-αβ production (MPI cells; MPI cells) was “neither of the cell types produced IFN-αβ”, the “IL-6 and TNF-α levels” value (MPI cells; MPI cells in comparison to BMMs) was “higher levels” and the IFN-αβ production (BMMs) was “neither of the cell types produced IFN-αβ”.
